How the values were obtained:
SIRT2 [1] = target: T1, SIRT2 (Homo sapiens, UniProt Q8IXJ6); assay: biochemical; assay type: biochemical; conditions: for %inhibition SIRT2, QPKKac: 100 µM inhibitor, QPKKac 50 µM, NI = no inhibition
T1 sequence (Q8IXJ6 50-356): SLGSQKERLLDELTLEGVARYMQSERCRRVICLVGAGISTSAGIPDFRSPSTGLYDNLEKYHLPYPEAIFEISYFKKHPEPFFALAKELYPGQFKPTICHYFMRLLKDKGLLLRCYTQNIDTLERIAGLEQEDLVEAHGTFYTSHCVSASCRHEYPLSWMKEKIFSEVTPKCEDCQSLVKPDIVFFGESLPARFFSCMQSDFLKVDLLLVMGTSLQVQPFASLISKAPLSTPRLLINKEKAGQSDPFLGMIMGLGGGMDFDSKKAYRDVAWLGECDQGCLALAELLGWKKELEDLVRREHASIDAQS

SIRT6 = SIRT6 (Homo sapiens, UniProt Q8N6T7); assay: End-point SIRT6 inhibition assay; assay type: biochemical; conditions: 10 µM inhibitor; SIRT6 600 nM; ETDKmyr 50 µM as substrate; NI = no inhibition
Chain of SIRT6 (Q8N6T7 whole entry): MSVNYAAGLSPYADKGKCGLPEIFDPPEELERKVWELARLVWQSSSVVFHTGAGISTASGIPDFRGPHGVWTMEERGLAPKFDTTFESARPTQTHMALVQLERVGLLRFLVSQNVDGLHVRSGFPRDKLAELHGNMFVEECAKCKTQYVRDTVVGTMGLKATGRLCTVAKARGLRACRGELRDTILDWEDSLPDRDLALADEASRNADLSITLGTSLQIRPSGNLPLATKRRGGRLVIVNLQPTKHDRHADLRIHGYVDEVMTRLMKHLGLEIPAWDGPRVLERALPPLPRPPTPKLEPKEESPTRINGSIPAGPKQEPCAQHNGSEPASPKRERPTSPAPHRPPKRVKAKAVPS

SIRT1 = target: T2, SIRT1 (Homo sapiens, UniProt Q96EB6); assay: End-point SIRT1 deacetylation inhibition assay; assay type: biochemical
T2 sequence (Q96EB6 193-741): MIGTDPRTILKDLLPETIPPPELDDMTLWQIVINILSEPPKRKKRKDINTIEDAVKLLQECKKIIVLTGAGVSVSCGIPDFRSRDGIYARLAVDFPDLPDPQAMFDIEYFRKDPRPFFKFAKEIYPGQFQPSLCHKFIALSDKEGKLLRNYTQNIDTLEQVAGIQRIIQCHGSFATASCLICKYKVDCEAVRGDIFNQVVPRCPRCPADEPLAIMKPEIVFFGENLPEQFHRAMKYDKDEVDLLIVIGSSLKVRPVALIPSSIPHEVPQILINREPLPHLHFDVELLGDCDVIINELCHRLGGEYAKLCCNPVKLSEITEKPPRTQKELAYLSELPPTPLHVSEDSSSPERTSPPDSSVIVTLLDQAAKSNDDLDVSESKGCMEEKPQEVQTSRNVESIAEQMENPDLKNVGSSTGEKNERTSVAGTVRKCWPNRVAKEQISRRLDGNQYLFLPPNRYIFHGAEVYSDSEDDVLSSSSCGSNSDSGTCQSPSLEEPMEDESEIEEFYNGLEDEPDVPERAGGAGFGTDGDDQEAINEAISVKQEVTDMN

[2] = Serum stability in human male serum; assay type: in vitro ADME; conditions: 37 °C, up to 24 h
SIRT3 = target: T3, SIRT3 (Homo sapiens, UniProt Q9NTG7); assay: biochemical; assay type: biochemical
T3 sequence (Q9NTG7 102-399): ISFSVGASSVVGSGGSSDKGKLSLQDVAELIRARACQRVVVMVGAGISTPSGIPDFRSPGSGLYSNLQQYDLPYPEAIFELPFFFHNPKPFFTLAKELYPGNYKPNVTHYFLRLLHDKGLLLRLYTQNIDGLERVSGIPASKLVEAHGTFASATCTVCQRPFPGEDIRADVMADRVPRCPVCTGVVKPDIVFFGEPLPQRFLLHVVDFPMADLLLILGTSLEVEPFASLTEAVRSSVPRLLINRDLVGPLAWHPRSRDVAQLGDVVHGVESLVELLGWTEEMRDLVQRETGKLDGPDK

SIRT2 [3] = target: T1, SIRT2; assay: Continuous trypsin-coupled SIRT2 inhibition assay; assay type: biochemical; conditions: from dependence of kobs on inhibitor concentration
[4] = tested on: acetylated α-tubulin in MCF-7 cells; assay: Immunofluorescence of acetylated α-tubulin in MCF-7 cells; assay type: cell-based, human; conditions: MCF-7, 6 h; 26 5 μM, 26-D 25 μM, TSA 5 μM

Structure (SMILES): CCCCCCCCCCCCCC(=O)NNCCC[C@H](NC(=O)OCc1ccccc1)C(=O)N[C@@H](Cc1c[nH]c2ccccc12)C(=O)NC(C)C [Compound 4]
- %inhibition SIRT2, QPKKac (SIRT2 [1]): only limited inhibition

Structure (SMILES): CCCCCCCCCCCCNC(=O)CCCCC[C@H](NC(=O)OCc1ccccc1)C(=O)N[C@@H](Cc1c[nH]c2ccccc12)C(=O)NC(C)C [Compound 5]
- %inhibition SIRT2, QPKKac (SIRT2 [1]): only limited inhibition

Structure (SMILES): CCCCCCCCCCCCNC(=S)NCCCC[C@H](NS(C)(=O)=O)C(=O)N[C@@H](C)C(=O)N[C@@H](CCCNC(=N)N)C(N)=O [Compound 25]
- %-inhibition SIRT6 (SIRT6): did not inhibit
- IC50 (SIRT1): 370 ± 70 nM
- IC50 (SIRT2 [1]; IC50 SIRT2, QPKKac, given as class word, QPKKac 50 μM, NAD+ 500 μM, SIRT2 100 nM): < 100 nM
- degradation in human serum (in words) [2]: almost fully degraded in less than two hours
- IC50 (SIRT3): 1900 ± 300 nM
- mechanism of slow-binding inhibition (SIRT2 [3]): mechanism B

Structure (SMILES): CC(/C=C/C(=O)NO)=C\[C@@H](C)C(=O)c1ccc(N(C)C)cc1 [TSA, Trichostatin A]
- acetylated α-tubulin level by immunofluorescence (in words) [4]: hyperacetylation of α-tubulin throughout the entire cell

Structure (SMILES): CN(C)CCCCC(=O)Nc1ccc(NC(=S)NC(=O)c2ccc(C(C)(C)C)cc2)cc1 [Tenovin-6, reference compound]
- degradation in human serum (in words) [2]: rapidly degraded
- %inhibition SIRT3, QPKKac (SIRT3; 100 µM inhibitor, QPKKac 50 µM, NI = no inhibition): <50% [100 μM]

— paper PMC8341974 (RSC Chemical Biology, 2021)
